The record followed here is PubChem BioAssay (NCI).

Test systems include IGROV1 ovarian; UO-31 renal; CCRF-CEM leukemia; ACHN renal; OVCAR-8 ovarian; COLO 205 colon; T-47D breast; MALME-3M melanoma; SK-MEL-5 melanoma; MDA-N; NCI-H23 lung; SN12C renal; NCI/ADR-RES ovarian; SK-MEL-28 melanoma; DU-145 prostate; SR leukemia; RPMI-8226 leukemia; RXF 393 renal.
Holding throughout (experiment): NCI-60 cell line screen, 48 h

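Briefly, cells in 96-well plates were exposed to five compound concentrations for 48 h, and endpoints were estimated by linear interpolation. TGI marks complete inhibition of growth.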

In the case of `CCO/C(Cc1ccc(Cl)cc1)=N/NC(N)=S`, the TGI with IGROV1 ovarian, in the test with UO-31 renal, in the test with CCRF-CEM leukemia, with ACHN renal, in the test with OVCAR-8 ovarian and with COLO 205 colon was over 100 µM in each case. The TGI in the test on T-47D breast, in the test on MALME-3M melanoma, with SK-MEL-5 melanoma, with MDA-N, in the test on NCI-H23 lung and in the test on SN12C renal was over 100 µM throughout. For the same compound, the TGI with NCI/ADR-RES ovarian, with SK-MEL-28 melanoma, with DU-145 prostate and in the test on SR leukemia was over 100 µM each time.

Regarding `COc1cc2ccc1OCc1cccc(n1)COc1ccc(cc1OC)C=NCCNCCN=C2`, the TGI in the test on IGROV1 ovarian, in the test on UO-31 renal, in the test on RPMI-8226 leukemia, in the test with ACHN renal, in the test with RXF 393 renal and in the test with OVCAR-8 ovarian was over 100 µM throughout. The TGI in the test on COLO 205 colon, in the test with T-47D breast, with MALME-3M melanoma, in the test on SK-MEL-5 melanoma, in the test with MDA-N and with NCI-H23 lung was over 100 µM each time. The TGI in the test with SN12C renal, with NCI/ADR-RES ovarian, in the test on SK-MEL-28 melanoma, in the test on DU-145 prostate and in the test with SR leukemia was over 100 µM in each case.

As to `O=C(C/C=C/c1ccccc1)c1ccccc1`, the TGI with IGROV1 ovarian is over 100 µM; with UO-31 renal it was 28.2 µM; in the test on CCRF-CEM leukemia, 64.8 µM; in the test with RPMI-8226 leukemia it was 83.5 µM; in the test with ACHN renal, 35.8 µM; in the test on RXF 393 renal, 34 µM. The TGI with OVCAR-8 ovarian was 49.1 µM; in the test on COLO 205 colon, 56.6 µM; in the test with T-47D breast it was 42.7 µM; in the test on SK-MEL-5 melanoma, 40.8 µM; in the test with MDA-N, 50.9 µM; in the test with NCI-H23 lung it was 31.6 µM. Besides, the TGI is 60.9 µM in the test with SN12C renal; 33.7 µM with NCI/ADR-RES ovarian; 53.6 µM with SK-MEL-28 melanoma; 31 µM in the test with DU-145 prostate; 49.9 µM in the test on SR leukemia.

For the compound `COC1=CC(=O)C2=C(C[C@@]3(C)C(=C2)C(CO)=CC[C@H]3O)C1=O`, the TGI in the test with IGROV1 ovarian amounted to 31.7 µM; with UO-31 renal, 39.5 µM; in the test with CCRF-CEM leukemia, 38.4 µM; in the test with RPMI-8226 leukemia it was 44.5 µM; in the test with ACHN renal it was 33.1 µM; with RXF 393 renal it was 30.9 µM. The TGI in the test with OVCAR-8 ovarian is 32.9 µM; with COLO 205 colon, 65.9 µM; with T-47D breast, over 100 µM; in the test on MALME-3M melanoma, over 100 µM; in the test on SK-MEL-5 melanoma, 32.2 µM; with MDA-N, 37.4 µM. For the same compound, the TGI is 48.7 µM in the test with NCI-H23 lung; 32.8 µM in the test on SN12C renal; 56.1 µM in the test on NCI/ADR-RES ovarian; 82.7 µM in the test with SK-MEL-28 melanoma; over 100 µM in the test with DU-145 prostate.

Consider `CCCCC(=O)Nc1ccc2c(C)cc(-c3ccc(-c4cc(-c5ccc(C)cc5)cc(-c5ccc(-c6cc(C)c7ccc(NC(=O)CCCC)nc7n6)cc5)n4)cc3)nc2n1`, for which the TGI in the test on UO-31 renal, in the test with CCRF-CEM leukemia, in the test with RPMI-8226 leukemia, in the test with ACHN renal, in the test on COLO 205 colon and in the test on T-47D breast was over 100 µM each time. Also, the TGI in the test with MALME-3M melanoma, in the test on SK-MEL-5 melanoma, with MDA-N, with NCI-H23 lung, in the test on SN12C renal and in the test on NCI/ADR-RES ovarian was over 100 µM in each case. For the same compound, the TGI in the test with SK-MEL-28 melanoma and in the test on DU-145 prostate was over 100 µM each time.

On to `CC[C@@]1(CCC(=O)NCCc2c[nH]c3ccccc23)CCC(=O)N2CCc3c([nH]c4ccccc34)[C@H]21`, for which the TGI in the test on IGROV1 ovarian is 30 µM; in the test with UO-31 renal, over 100 µM; with CCRF-CEM leukemia, over 100 µM; in the test on RPMI-8226 leukemia, 9.59 µM; in the test on ACHN renal, over 100 µM; with RXF 393 renal, 33.3 µM. The TGI in the test with COLO 205 colon was over 100 µM; with T-47D breast it was over 100 µM; in the test with MALME-3M melanoma, 25.4 µM; in the test with SK-MEL-5 melanoma it was over 100 µM; with MDA-N, over 100 µM; with NCI-H23 lung, over 100 µM. Further, the TGI is over 100 µM with SN12C renal, 33.4 µM with NCI/ADR-RES ovarian, over 100 µM with SK-MEL-28 melanoma and over 100 µM in the test with DU-145 prostate.

Take `N#Cc1c(O)c2ccccc2[nH]c1=O`: the TGI in the test on IGROV1 ovarian, in the test on UO-31 renal, in the test on CCRF-CEM leukemia, in the test on RPMI-8226 leukemia, with ACHN renal and with RXF 393 renal was over 100 µM in each case. The TGI in the test on OVCAR-8 ovarian, in the test with COLO 205 colon, with T-47D breast, in the test on MALME-3M melanoma, with SK-MEL-5 melanoma and in the test on MDA-N was over 100 µM throughout. The TGI with NCI-H23 lung, in the test with SN12C renal, in the test with NCI/ADR-RES ovarian, in the test on SK-MEL-28 melanoma and in the test on DU-145 prostate was over 100 µM each time.

`CCCCc1ccc(C#CC#Cc2ccc(CCCC)s2)s1`: the TGI in the test with IGROV1 ovarian, in the test on UO-31 renal, with CCRF-CEM leukemia, in the test with RPMI-8226 leukemia, with ACHN renal and in the test on RXF 393 renal was over 100 µM each time. The TGI in the test with OVCAR-8 ovarian, in the test on COLO 205 colon, in the test on T-47D breast, in the test on SK-MEL-5 melanoma, in the test with MDA-N and with NCI-H23 lung was over 100 µM throughout. In addition, the TGI with SN12C renal, with NCI/ADR-RES ovarian, with DU-145 prostate and with SR leukemia was over 100 µM each time.

On to `CCCCOC(=O)c1cc(C(=CCC[C@H]2CC[C@@]3(C)[C@@H](CC[C@@H]4[C@@H]3CC[C@]3(C)[C@@H](C(C)CCCC(C)C)CC[C@@H]43)C2)c2cc(Cl)c(O)c(C(=O)OCCCC)c2)cc(Cl)c1O` (some centres not stated), for which the TGI in the test on IGROV1 ovarian, with CCRF-CEM leukemia, in the test on RPMI-8226 leukemia, in the test with OVCAR-8 ovarian, in the test with COLO 205 colon and in the test on T-47D breast was over 50 µM in each case. In addition, the TGI in the test with SK-MEL-5 melanoma, in the test with MDA-N, in the test on NCI-H23 lung, in the test on SN12C renal, in the test on NCI/ADR-RES ovarian and in the test with DU-145 prostate was over 50 µM throughout.
